Assay results taken from paper PMC8323883, “PlzA is a bifunctional c-di-GMP biosensor that promotes tick and mammalian host-adaptation of Borrelia burgdorferi” (PLoS Pathogens, 2021).

Molecular target: T1, PlzA (BB0733) (Borreliella burgdorferi, UniProt O51675)
T1 construct: gene BB_0733; PilZN3-PilZ domains
Test: SAXS with and without ligand (Kratky plots)
Format: binding
Conditions: 33-135 µM PlzA, 270 µM c-di-GMP; 500 mM NaCl, 20 mM Na2HPO4, pH 7.4; ligand-induced conformational change

T1 sequence (O51675 entry or part of it): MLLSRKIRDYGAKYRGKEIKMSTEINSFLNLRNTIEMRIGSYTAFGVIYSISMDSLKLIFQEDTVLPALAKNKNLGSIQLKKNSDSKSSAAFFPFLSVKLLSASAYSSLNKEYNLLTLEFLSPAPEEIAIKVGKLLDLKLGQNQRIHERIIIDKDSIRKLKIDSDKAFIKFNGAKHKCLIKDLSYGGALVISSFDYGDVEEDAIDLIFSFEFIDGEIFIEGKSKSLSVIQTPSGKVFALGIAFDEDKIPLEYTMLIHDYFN

Nc1nc2c(ncn2[C@@H]2O[C@@H]3COP(=O)(O)O[C@H]4[C@@H](O)[C@H](n5cnc6c(=O)[nH]c(N)nc65)O[C@@H]4COP(=O)(O)O[C@H]3[C@H]2O)c(=O)[nH]1 [c-di-GMP, bis-(3′-5′)-cyclic dimeric guanosine monophosphate]
SAXS with and without ligand (Kratky plots): confirming a major structural rearrangement upon binding of c-di-GMP
